Reference: patent US6756384B2, “Imidazole compounds” (Novo Nordisk A/S, priority 2000, dated 2004)
Structures can show the parent of a compound that is named as a salt.

First: CN(Cc1ccccc1)C(=O)C1CCCc2[nH]cnc21 (centres unmarked) (as salt: hydrochloride) [Example 90, 4,5,6,7-Tetrahydro-1H-benzimidazole-4-carboxylic acid benzylmethylamide]
Second: O=C(NCCc1ccccc1)C1CCCc2[nH]cnc21 (centres unmarked) (as salt: hydrochloride) [Example 91, 4,5,6,7-Tetrahydro-1H-benzimidazole-4-carboxylic acid phenethylamide]
The melting point of the first is higher: 211 to 213 °C for the first, 177 to 179 °C for the second.

First: Cl.O=C(Cc1ccc(Cl)cc1)NC1CCc2[nH]cnc2C1 (centres unmarked)
Second: Cl.O=C(NCCCc1ccc(Cl)cc1)C1CCc2[nH]cnc2C1 (centres unmarked)
The melting point of the first is higher: 222 to 224 °C for the first, 146 to 148 °C for the second.

First: C[C@@H](NC(=O)C1CCc2[nH]cnc2C1)c1cccc2ccccc12.Cl (some centres unmarked)
Second: C[C@H](NC(=O)C1CCc2[nH]cnc2C1)c1cccc2ccccc12 (some centres unmarked) [Example 1]
The melting point of the first is lower: 84 to 85 °C for the first, 158 to 160 °C for the second.

First: O=C(NCc1c(Cl)cccc1Oc1ccccc1)C1CCc2[nH]cnc2C1 (centres unmarked) [Example 22, 4,5,6,7-Tetrahydro-1H-benzimidazole-5-carboxylic Acid N-(2-Chloro-6-phenoxy-benzyl)amide]
Second: Cl.O=C(NCc1cccc2ccccc12)C1CCc2[nH]cnc2C1 (centres unmarked)
The melting point of the first is higher: 197 to 199 °C for the first, 142 to 144 °C for the second.

Compared with `O=C(NCCc1ccccc1)C1CCc2[nH]cnc2C1.O=C(O)C(=O)O` (centres unmarked), `O=C(NCc1ccccc1)C1CCc2[nH]cnc2C1.O=C(O)C(=O)O` (centres unmarked) is lower in melting point: 197 to 199 °C for the first, 130 to 132 °C for the second.

`O=C(NCc1ccccc1Cl)C1CCCc2[nH]cnc21` (centres unmarked) (as salt: hydrochloride) [Example 89, 4,5,6,7-Tetrahydro-1H-benzimidazole-4-carboxylic acid 2-chlorobenzylamide] showed a melting point of 165 to 167 °C.
